Data: PubChem BioAssay AID248 (DTP/NCI, 2004)
Several values for one entry are separate records, joined by “and”; a condition that tells them apart may be missing. Equal entries are not always repeated. Inconclusive results and toxic doses are left out. Cut-off read from the data, not from the text of the source: active = T/C of 150% or more; inactive = T/C below 125%.

Test system: L1210 leukemia ip in BDF1 mice, survival T/C
Assay: NCI In Vivo Anticancer Drug Screen. Data for tumor model L1210 Leukemia (intraperitoneal) in B6D2F1 (BDF1) mice
Conditions: endpoint: mean survival time, higher = longer survival
In short: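 Mice bearing the transplanted tumor received compound or vehicle. Survival of the treated group was divided by that of the vehicle-treated control group to give the ratio.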

[1] = dose: 100.0 mg/kg/injection, schedule: Q01DX001 (ip), vehicle: Klucel (hydroxypropylcellulose) (HPC)
[2] = dose: 200.0 mg/kg/injection, schedule: Q01DX001 (ip), vehicle: Klucel (hydroxypropylcellulose) (HPC)
[3] = dose: 100.0 mg/kg/injection, schedule: Q01DX001 (ip), vehicle: saline
[4] = dose: 200.0 mg/kg/injection, schedule: Q01DX001 (ip), vehicle: saline
[5] = dose: 400.0 mg/kg/injection, schedule: Q01DX001 (ip), vehicle: saline

Measured: T/C

O=C(OC(CC[P+](c1ccccc1)(c1ccccc1)c1ccccc1)(C(=O)c1ccccc1)c1ccccc1)c1ccccc1 (centres undefined)
inactive: dose: 3.0 mg/kg/injection, schedule: Q04DX003 (ip), vehicle: saline 98 % of control | dose: 6.0 mg/kg/injection, schedule: Q04DX003 (ip), vehicle: saline 103 % of control | dose: 12.0 mg/kg/injection, schedule: Q04DX003 (ip), vehicle: saline 94 % of control | dose: 15.0 mg/kg/injection, schedule: Q01DX001 (ip), vehicle: carboxymethylcellulose (CMC) 90 % of control | dose: 30.0 mg/kg/injection, schedule: Q01DX001 (ip), vehicle: carboxymethylcellulose (CMC) 98 % of control | dose: 60.0 mg/kg/injection, schedule: Q01DX001 (ip), vehicle: carboxymethylcellulose (CMC) 95 % of control | dose: 75.0 mg/kg/injection, schedule: Q01DX001 (ip), vehicle: carboxymethylcellulose (CMC) 88 % of control

CON(C)S(=O)(=O)c1ccc([N+](=O)[O-])cc1
inactive: [1] 102 % of control | [2] 98 % of control

CC(C)=NN
inactive: [3] 105 % of control | [4] 98 % of control | [5] 100 % of control

Cc1ccc(S(=O)(=O)OCC2Oc3ccccc3O2)cc1
inactive: dose: 75.0 mg/kg/injection, schedule: Q04DX003 (ip), vehicle: Klucel (hydroxypropylcellulose) (HPC) 93 % of control | dose: 150.0 mg/kg/injection, schedule: Q04DX003 (ip), vehicle: Klucel (hydroxypropylcellulose) (HPC) 107 % of control | dose: 300.0 mg/kg/injection, schedule: Q04DX003 (ip), vehicle: Klucel (hydroxypropylcellulose) (HPC) 100 % of control

Cc1cccc(Nc2cc(C)nc(N)n2)c1
inactive: dose: 25.0 mg/kg/injection, schedule: Q01DX Z (ip), vehicle: methylcellulose (MC) 105 % of control | dose: 50.0 mg/kg/injection, schedule: Q01DX Z (ip), vehicle: methylcellulose (MC) 100 % of control

C/C(N)=N\O
inactive: dose: 100.0 mg/kg/injection, schedule: Q04DX002 (ip), vehicle: saline 105 % of control | dose: 200.0 mg/kg/injection, schedule: Q04DX002 (ip), vehicle: saline 102 % of control | dose: 400.0 mg/kg/injection, schedule: Q04DX002 (ip), vehicle: saline 105 % of control

CC(O)C(C)(O)C(=O)O (centres undefined)
inactive: dose: 100.0 mg/kg/injection, schedule: Q01DX009 (ip), vehicle: saline 100 % of control | dose: 100.0 mg/kg/injection, schedule: Q04DX003 (ip), vehicle: saline 104 % of control | dose: 200.0 mg/kg/injection, schedule: Q01DX009 (ip), vehicle: saline 90 % of control | dose: 200.0 mg/kg/injection, schedule: Q04DX003 (ip), vehicle: saline 95 % of control | dose: 400.0 mg/kg/injection, schedule: Q04DX003 (ip), vehicle: saline 101 % of control

Cc1ccc2c(c1)Nc1ccccc1C(=O)N2
inactive: dose: 100.0 mg/kg/injection, schedule: Q01DX009 (ip), vehicle: Klucel (hydroxypropylcellulose) (HPC) 98 % of control | dose: 200.0 mg/kg/injection, schedule: Q01DX009 (ip), vehicle: Klucel (hydroxypropylcellulose) (HPC) 93 % of control | dose: 400.0 mg/kg/injection, schedule: Q01DX009 (ip), vehicle: Klucel (hydroxypropylcellulose) (HPC) 91 % of control

Cc1ccc(-c2ccno2)cc1
inactive: dose: 100.0 mg/kg/injection, schedule: Q01DX001 (ip), vehicle: carboxymethylcellulose (CMC) 96 % of control | dose: 200.0 mg/kg/injection, schedule: Q01DX001 (ip), vehicle: carboxymethylcellulose (CMC) 92 % of control | dose: 400.0 mg/kg/injection, schedule: Q01DX001 (ip), vehicle: carboxymethylcellulose (CMC) 97 % of control

O=C1C=C2C=CC3CC2(O1)C1CCCCN31 (centres undefined)
inactive: dose: 10.0 mg/kg/injection, schedule: Q01DX001 (ip), vehicle: saline 105 % of control | dose: 20.0 mg/kg/injection, schedule: Q01DX001 (ip), vehicle: saline 100 % of control | [3] 105 % of control and 102 % of control | [4] 104 % of control and 102 % of control

Oc1ccc2ccccc2c1N=Nc1nccs1
inactive: dose: 12.5 mg/kg/injection, schedule: Q01DX009 (ip), vehicle: Klucel (hydroxypropylcellulose) (HPC) 96 % of control | dose: 25.0 mg/kg/injection, schedule: Q01DX009 (ip), vehicle: Klucel (hydroxypropylcellulose) (HPC) 95 % of control | dose: 50.0 mg/kg/injection, schedule: Q01DX009 (ip), vehicle: Klucel (hydroxypropylcellulose) (HPC) 101 % of control | [1] 94 % of control | dose: 100.0 mg/kg/injection, schedule: Q04DX003 (ip), vehicle: Klucel (hydroxypropylcellulose) (HPC) 100 % of control | [2] 101 % of control | dose: 200.0 mg/kg/injection, schedule: Q04DX003 (ip), vehicle: Klucel (hydroxypropylcellulose) (HPC) 96 % of control | dose: 400.0 mg/kg/injection, schedule: Q01DX001 (ip), vehicle: Klucel (hydroxypropylcellulose) (HPC) 98 % of control | dose: 400.0 mg/kg/injection, schedule: Q04DX003 (ip), vehicle: Klucel (hydroxypropylcellulose) (HPC) 94 % of control

CC(=O)n1cc(C2CC(=O)OC3=C2C(=O)CCC3)c2ccccc21 (centres undefined)
inactive: dose: 100.0 mg/kg/injection, schedule: Q01DX009 (ip), vehicle: saline with Tween-80 93 % of control | dose: 100.0 mg/kg/injection, schedule: Q04DX003 (ip), vehicle: saline with Tween-80 89 % of control | dose: 200.0 mg/kg/injection, schedule: Q01DX009 (ip), vehicle: saline with Tween-80 93 % of control | dose: 200.0 mg/kg/injection, schedule: Q04DX003 (ip), vehicle: saline with Tween-80 89 % of control | dose: 400.0 mg/kg/injection, schedule: Q01DX009 (ip), vehicle: saline with Tween-80 97 % of control | dose: 400.0 mg/kg/injection, schedule: Q04DX003 (ip), vehicle: saline with Tween-80 91 % of control

CN1CC(=O)N2c3ccccc3CC2C1=O (centres undefined)
inactive: dose: 100.0 mg/kg/injection, schedule: Q04DX002 (ip), vehicle: saline with Tween-80 102 % of control | dose: 200.0 mg/kg/injection, schedule: Q04DX002 (ip), vehicle: saline with Tween-80 113 % of control | dose: 400.0 mg/kg/injection, schedule: Q04DX002 (ip), vehicle: saline with Tween-80 102 % of control

Clc1ncnc2ccccc12
inactive: [1] 94 % of control | [2] 95 % of control

c1ccc2c(c1)CCCN2
inactive: [3] 99 % of control | [4] 89 % of control | [5] 89 % of control

Nc1cccc(NC(=O)Nc2ccccc2)c1
inactive: dose: 50.0 mg/kg/injection, schedule: Q04DX002 (ip), vehicle: Klucel (hydroxypropylcellulose) (HPC) 105 % of control | dose: 100.0 mg/kg/injection, schedule: Q04DX002 (ip), vehicle: Klucel (hydroxypropylcellulose) (HPC) 91 % of control

Cn1c(N)c(N=O)c(=O)n(C)c1=O
inactive: dose: 9.0 mg/kg/injection, schedule: Q01DX009 (ip), vehicle: saline with Tween-80 103 % of control | dose: 18.0 mg/kg/injection, schedule: Q01DX009 (ip), vehicle: saline with Tween-80 103 % of control | dose: 36.0 mg/kg/injection, schedule: Q01DX009 (ip), vehicle: saline with Tween-80 105 % of control | dose: 72.0 mg/kg/injection, schedule: Q01DX009 (ip), vehicle: saline with Tween-80 97 % of control | dose: 90.0 mg/kg/injection, schedule: Q01DX009 (ip), vehicle: saline with Tween-80 93 % of control | dose: 180.0 mg/kg/injection, schedule: Q01DX009 (ip), vehicle: saline with Tween-80 100 % of control | dose: 360.0 mg/kg/injection, schedule: Q01DX009 (ip), vehicle: saline with Tween-80 98 % of control | dose: 360.0 mg/kg/injection, schedule: Q04DX003 (ip), vehicle: saline with Tween-80 97 % of control | dose: 720.0 mg/kg/injection, schedule: Q04DX003 (ip), vehicle: saline with Tween-80 95 % of control
